The text below walks through data of patent US4786638A, “2,4-disubstituted-5-cyano-1,6-dihydro-6-oxo-1-pyrimidineacetic acid aldose reductase inhibitors” (American Home Products Corporation, priority 1987, dated 1988).

For assay [1], the target named is T1, aldose reductase (Bos taurus, UniProt P16116).
T1 construct: preparation of the enzyme from bovine lens; from tissue; host or cells: bovine lens
Nature of the assay: In vitro aldose reductase inhibition (modified Hayman and Kinoshita procedure; enzyme from bovine lens). In kind it is biochemical. The following applies: for inhibition at 10 µM: read-out: % Inhibition IN VITRO 10^-5 M; for inhibition at 1 µM: read-out: % Inhibition IN VITRO 10^-6 M; for inhibition at 0.1 µM: read-out: % Inhibition IN VITRO 10^-7 M. An excerpt:
In the present case the procedure of Hayman and Kinoshita was modified in that the final chromatography step was omitted in the preparation of the enzyme from bovine lens.

Assay [2] has as its system galactitol accumulation in the tissues of the lens, sciatic nerve, and diaphragm. Put plainly: Galactosemic rats: lowering of dulcitol (galactitol) accumulation in lens, sciatic nerve and diaphragm. In kind it is in vivo, Male Sprague-Dawley rats. Particulars: for % Lowering dulcitol accumulation IN VIVO, D: diaphragm; for % Lowering dulcitol accumulation IN VIVO, L: lens. The procedure:
Such experiments are exemplified hereinbelow after the listing of the following general comments pertaining to these experiments:
Male Sprague-Dawley rats, weighing approximately 90 grams were separated into groups of equal average body weight, with six animals per group. The animals were housed in cages of six animals each and maintained on 12 hour night/12 hour day cycles. Except as otherwise noted, the animals were given food and water ad libitum.
On day 1, the galactosemic control group and all drug-treated groups were given access to 20% galactose chow (Bio-Serv, Frenchtown, N.J.). Animals in the control group were given access to 20% glucose chow (Bio-Serv). Test compounds were administered either in the diet or by gavage as a suspension in 2% Tween 80 in saline. In experiments in which gavage dosing was used, the animals were administered the test compound daily at approximately the same hour each day. Food intake and body weight were determined twice during the course of the experiment. In cases in which the compound was administered in the diet, the average dose was calculated on the basis of the actual average food intake during the experiment.
On the morning of day 5, all animals were fasted; beginning two hours later the animals were decapitated and the lenses, sciatic nerves, and a 50-100 mg portion of the diaphragm were removed, weighed, and frozen in porcelain plates on dry ice.
Only two minor reagent changes were made: (a) the rinsing mixture was an aqueous 5% (w/v) trichloroacetic acid solution and (b) the stock solution was prepared by dissolving 25 mg of dulcitol in 100 mL of an aqueous trichloroacetic acid solution [N.B.: For each experiment the average value found in the tissue from rats fed the glucose diet was subtracted from the individual values found in the corresponding tissue in galactose-fed rats to obtain the amount of polyol accumulated.]
The figures under L, N and D represent the percentage decrease of galactitol accumulation in the tissues of the lens, sciatic nerve, and diaphragm, respectively for treated rats as compared to untreated rats.

Assay [3] has as its system aldose reductase. The following applies: reported by K. Sestanj et al., U.S. Pat. No. 4,568,693; cited from earlier work.
The mark [4] stands for this setting: 20% galactose diet, mg/kg by Example: 1:90, 2:128, 3:141, 4:93, 5:121, 6:110, 7:123, 8:87, 9:92, 10:102, 11:71, 12:84, 13:93, 14:112, 16:100, 17:100, 18:128, 19:117, 20:140, 21:103, 22:151, tolrestat:6.

For orientation: inhibition means the percentage by which the read-out fell short of the control. In the case of `Cc1nc(NCc2cccnc2)c(C#N)c(=O)n1CC(=O)O` [Example 12, 5-Cyano-1,6-dihydro-2-methyl-6-oxo-4-[(3-pyridinylmethyl)amino]-1-pyrimidineacetic Acid], at aldose reductase [1], the inhibition at 10 µM turned out to be 88%, the inhibition at 1 µM was determined as 90% and the inhibition at 0.1 µM came out at 30%. In assay [2] (setting [4]), the “% Lowering dulcitol accumulation IN VIVO, D” value is recorded as “N.S” and the “% Lowering dulcitol accumulation IN VIVO, L” value is reported as “N.S”.
For `Cc1nc(N2CCCCC2)c(C#N)c(=O)n1CC(=O)O` [Example 13], at aldose reductase [1], the inhibition at 10 µM turned out to be 88%, the inhibition at 1 µM was 75% and the inhibition at 0.1 µM was determined as 52%. Also, in assay [2] (setting [4]), the “% Lowering dulcitol accumulation IN VIVO, D” value is reported as “N.S” and the “% Lowering dulcitol accumulation IN VIVO, L” value is recorded as “N.S”.
On to `Cc1nc(N2CCN(Cc3ccccc3)CC2)c(C#N)c(=O)n1CC(=O)O` [Example 14], for which, on aldose reductase [1], the inhibition at 10 µM came to 92%, the inhibition at 1 µM turned out to be 89% and the inhibition at 0.1 µM came out at 64%. In assay [2] (setting [4]), the “% Lowering dulcitol accumulation IN VIVO, D” value is recorded as “N.S” and the “% Lowering dulcitol accumulation IN VIVO, L” value was “N.S”.
On to `Cc1nc(NCCc2ccccc2)c(C#N)c(=O)n1CC(=O)O` [Example 15], for which, on aldose reductase [1], the inhibition at 10 µM stood at 89%, the inhibition at 1 µM was found to be 88% and the inhibition at 0.1 µM was 71%. Besides, in assay [2] (98 mg/kg), the “% Lowering dulcitol accumulation IN VIVO, D” value was “N.S” and the “% Lowering dulcitol accumulation IN VIVO, L” value is reported as “N.S”. In assay [2] (196 mg/kg), the “% Lowering dulcitol accumulation IN VIVO, D” value is reported as “N.S” and the “% Lowering dulcitol accumulation IN VIVO, L” value is “N.S”.
On to `Cc1nc(NCC2CCCCC2)c(C#N)c(=O)n1CC(=O)O` [Example 16], for which, at aldose reductase [1], the inhibition at 10 µM was determined as 93%, the inhibition at 1 µM worked out at 91% and the inhibition at 0.1 µM amounted to 72%. Moreover, in assay [2] (setting [4]), the “% Lowering dulcitol accumulation IN VIVO, D” value is reported as “N.S” and the “% Lowering dulcitol accumulation IN VIVO, L” value is given as “N.S”.
With `Cc1nc(NCc2ccccc2)c(C#N)c(=O)n1CC(=O)O` [Example 17], on aldose reductase [1], the inhibition at 10 µM stood at 96%, the inhibition at 1 µM stood at 90% and the inhibition at 0.1 µM worked out at 78%. Further, in assay [2] (setting [4]), the “% Lowering dulcitol accumulation IN VIVO, D” value is “N.S” and the “% Lowering dulcitol accumulation IN VIVO, L” value is “N.S”.
Take `Cc1nc(N2CCC(Cc3ccccc3)CC2)c(C#N)c(=O)n1CC(=O)O` [Example 18]: on aldose reductase [1], the inhibition at 10 µM was found to be 90%, the inhibition at 1 µM worked out at 88% and the inhibition at 0.1 µM stood at 81%. For the same compound, in assay [2] (setting [4]), the “% Lowering dulcitol accumulation IN VIVO, D” value is recorded as “N.S” and the “% Lowering dulcitol accumulation IN VIVO, L” value is listed as “N.S”.
Turning to `N#Cc1c(-c2ccccc2)nc(-c2cccc3ccccc23)n(CC(=O)O)c1=O` [Example 19], at aldose reductase [1], the inhibition at 10 µM amounted to 84%, the inhibition at 1 µM stood at 68% and the inhibition at 0.1 µM worked out at 29%. Further, in assay [2] (setting [4]), the “% Lowering dulcitol accumulation IN VIVO, D” value stood at 21% and the “% Lowering dulcitol accumulation IN VIVO, L” value was “N.S”.
Consider `N#Cc1c(-c2ccccc2)nc(-c2cccc3c(Br)cccc23)n(CC(=O)O)c1=O` [Example 20, 5-Cyano-1,6-dihydro-2-(5-bromo-1-naphthalenyl)-6-oxo-4-phenyl-1-pyrimidineacetic Acid], for which, on aldose reductase [1], the inhibition at 10 µM came to 82%, the inhibition at 1 µM came to 71% and the inhibition at 0.1 µM came to 22%. Further, in assay [2] (setting [4]), the “% Lowering dulcitol accumulation IN VIVO, D” value was “N.S” and the “% Lowering dulcitol accumulation IN VIVO, L” value is on record as “N.S”.
As for `Cc1nc(-c2cccc3ccccc23)n(CC(=O)O)c(=O)c1C#N` [Example 21, 5-cyano-1,6-dihydro-4-methyl-2-(1-naphthalenyl)-6-oxo-1-pyrimidineacetic acid], at aldose reductase [1], the inhibition at 10 µM was determined as 87%, the inhibition at 1 µM turned out to be 55% and the inhibition at 0.1 µM amounted to 14%. In addition, in assay [2] (setting [4]), the “% Lowering dulcitol accumulation IN VIVO, D” value was “N.S” and the “% Lowering dulcitol accumulation IN VIVO, L” value was determined as 18%.
On the same counts, the results for `N#Cc1c(Cc2cccc3ccccc23)nc(-c2cccc3c(Br)cccc23)n(CC(=O)O)c1=O` [Example 22] are 93%, 85%, 46%, “N.S” and “N.S”.
As to `COc1ccc2c(C(=S)N(C)CC(=O)O)cccc2c1C(F)(F)F` [tolrestat, N-[[6-methoxy-5-(trifluoromethyl)-1-naphthalenyl]-thioxomethyl]-N-methylglycine, reference compound], the “inhibitor of aldose reductase (in words)” value in the assay on aldose reductase [3] is “effective inhibitor of aldose reductase”. Moreover, in assay [2] (setting [4]), the “% Lowering dulcitol accumulation IN VIVO, D” value was 90% and the “% Lowering dulcitol accumulation IN VIVO, L” value was “N.S”.
